Data on 17 compounds can be found in US9023855B2, “Compounds” (Chiesi Farmaceutici S.p.A., priority 2011, dated 2015).

The assay addresses T1, human neutrophil elastase (HNE) (Homo sapiens, UniProt P08246).
T1 construct: purchased Sigma E8140
T1 sequence (P08246 30-267): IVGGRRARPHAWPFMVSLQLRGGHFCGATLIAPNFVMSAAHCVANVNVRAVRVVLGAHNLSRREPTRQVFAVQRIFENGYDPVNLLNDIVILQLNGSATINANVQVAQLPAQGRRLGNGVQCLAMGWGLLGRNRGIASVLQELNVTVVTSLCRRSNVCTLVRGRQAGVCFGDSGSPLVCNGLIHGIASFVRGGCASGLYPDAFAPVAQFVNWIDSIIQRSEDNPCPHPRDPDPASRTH
In words: HNE enzyme assay (fluorogenic peptide substrate MeOSuc-Ala-Ala-Pro-Val-AMC). It counts as biochemical. As to conditions: human leukocyte elastase, substrate 100 μM, 25° C., 30 minutes, at least two separate experiments; read-out: HNE inhibition (IC50 values). As to the method: Compounds of this invention were tested for potency in a human neutrophil elastase (HNE) enzyme activity assay.
Assays were performed in 96-well plates in a total assay volume of 100 μl. The final concentration of elastase enzyme (human leukocyte elastase, Sigma E8140) was 0.0036 units/well […]. The peptide substrate (MeOSuc-Ala-Ala-Pro-Val-AMC, Calbiochem #324740) was used at a final concentration of 100 μM. The final concentration of DMSO was 1% in the assay buffer (0.05M Tris.HCl, 0.1M NaCl, 0.1M CaCl2, 0.0005% brij-35, pH 7.5). The enzymatic reaction was started by addition of the enzyme and incubated at 25° C. for 30 minutes. After incubation, the reaction was stopped by addition of soybean trypsin inhibitor (Sigma T9003) at a final concentration of 50 μg/well. Fluorescence was measured using a Molecular Devices fluorescence plate reader using 380 nm excitation and 460 nm emission wavelengths.
A dose response to each compound was performed, and the effect of the compound in each experiment was expressed as a percentage inhibition of the control enzyme fluorescence. Dose response curves were plotted and compound potency (IC50) was determined. Compounds were tested in at least two separate experiments.
For the compound `COC(=O)C1=C(C)N(c2cccc(C(F)(F)F)c2)c2nn(CC(=O)N(C)CCC[N+](C)(C)C)c(=O)n2C1c1ccc(C#N)cc1` (centres unmarked) [Example 28, [3-({2-[5-(4-Cyano-phenyl)-6-methoxycarbonyl-7-methyl-3-oxo-8-(3-trifluoromethyl-phenyl)-5,8-dihydro-[1,2,4]triazolo[4,3-a]pyrimidin-2-yl]-acetyl}-methyl-amino)propyl]-trimethyl-ammonium; bromide], the IC50 is below 20 nM.

Take `COC(=O)C1=C(C)N(c2cccc(C(F)(F)F)c2)c2nn(Cc3ccc(S(C)(=O)=O)cn3)c(=O)n2C1c1ccc(C#N)cc1` (centres unmarked) [Example 23, 5-(4-Cyano-phenyl)-2-(5-methanesulfonyl-pyridin-2-ylmethyl)-7-methyl-3-oxo-8-(3-trifluoromethyl-phenyl)-2,3,5,8-tetrahydro-[1,2,4]triazolo[4,3-a]pyrimidine-6-carboxylic acid methyl ester]: the IC50 was below 20 nM.

As to `COC(=O)C1=C(C)N(c2cccc(C(F)(F)F)c2)c2nn(S(=O)(=O)c3ccc(CN(C)CCN(C)C)cc3)c(=O)n2C1c1ccc(C#N)cc1` (centres unmarked) [Example 19, 5-(4-Cyano-phenyl)-2-(4-{[(2-dimethylamino-ethyl)-methyl-amino]-methyl}-benzenesulfonyl)-7-methyl-3-oxo-8-(3-trifluoromethyl-phenyl)-2,3,5,8-tetrahydro-[1,2,4]triazolo[4,3-a]pyrimidine-6-carboxylic acid methyl ester], the IC50 was 20 to 100 nM.

For the compound `COC(=O)C1=C(C)N(c2cccc(C(F)(F)F)c2)c2nn(CCCS(C)(=O)=O)c(=O)n2[C@@H]1c1ccc(C#N)cc1` [Example 18, (R)-5-(4-Cyano-phenyl)-2-(3-methanesulfonyl-propyl)-7-methyl-3-oxo-8-(3-trifluoromethyl-phenyl)-2,3,5,8-tetrahydro-[1,2,4]triazolo[4,3-a]pyrimidine-6-carboxylic acid methyl ester], the IC50 was below 20 nM.

In the case of `COC(=O)C1=C(C)N(c2cccc(C(F)(F)F)c2)c2nn(CC(=O)N(C)CCCCN(C)C)c(=O)n2C1c1ccc(C#N)cc1` (centres unmarked) [Example 29, 5-(4-Cyano-phenyl)-2-{[(4-dimethylamino-butyl)-methyl-carbamoyl]-methyl}-7-methyl-3-oxo-8-(3-trifluoromethyl-phenyl)-2,3,5,8-tetrahydro-[1,2,4]triazolo[4,3-a]pyrimidine-6-carboxylic acid methyl ester], the IC50 was below 20 nM.

Consider `COC(=O)C1=C(C)N(c2cccc(C(F)(F)F)c2)c2nn(Cc3ccc(C[N+](C)(C)C)cc3)c(=O)n2C1c1ccc(C#N)cc1` (centres unmarked) [Example 22, {4-[5-(4-Cyano-phenyl)-6-methoxycarbonyl-7-methyl-3-oxo-8-(3-trifluoromethyl-phenyl)-5,8-dihydro-[1,2,4]triazolo[4,3-a]pyrimidin-2-ylmethyl]-benzyl}-trimethyl-ammonium bromide], for which the IC50 is below 20 nM.

For the compound `COC(=O)C1=C(C)N(c2cccc(C(F)(F)F)c2)c2nn(-c3ccc(S(C)(=O)=O)cc3)c(=O)n2C1c1ccc(C#N)cc1` (centres unmarked) [Example 15, 5-(4-Cyano-phenyl)-2-(4-methanesulfonyl-phenyl)-7-methyl-3-oxo-8-(3-trifluoromethyl-phenyl)-2,3,5,8-tetrahydro-[1,2,4]triazolo[4,3-a]pyrimidine-6-carboxylic acid methyl ester], the IC50 was below 20 nM.

In the case of `COC(=O)C1=C(C)N(c2cccc(C(F)(F)F)c2)c2nn(CCCN(C)C(C)=O)c(=O)n2C1c1ccc(C#N)cc1` (centres unmarked) [Example 35, 2-[3-(Acetyl-methyl-amino)-propyl]-5-(4-cyano-phenyl)-7-methyl-3-oxo-8-(3-trifluoromethylphenyl)-2,3,5,8-tetrahydro-[1,2,4]triazolo[4,3-a]pyrimidine-6-carboxylic acidmethyl ester], the IC50 is below 20 nM.

Turning to `CC1=C(C(=O)OCCCN(C)C)C(c2ccc(C#N)cc2)n2c(n[nH]c2=O)N1c1cccc(C(F)(F)F)c1` (centres unmarked) [Example 11, 5-(4-Cyano-phenyl)-7-methyl-3-oxo-8-(3-trifluoromethyl-phenyl)-2,3,5,8-tetrahydro-[1,2,4]triazolo[4,3-a]pyrimidine-6-carboxylic acid 3-dimethylamino-propyl ester], the IC50 is below 20 nM.

Take `CC1=C(C(=O)O)C(c2ccc(C#N)cc2)n2c(n[nH]c2=O)N1c1cccc(C(F)(F)F)c1` (centres unmarked) [Example 9, 5-(4-Cyano-phenyl)-7-methyl-3-oxo-8-(3-trifluoromethyl-phenyl)-2,3,5,8-tetrahydro-[1,2,4]triazolo[4,3-a]pyrimidine-6-carboxylic acid]: the half-inhibitory concentration (IC50) was below 20 nM.

For `COC(=O)C1=C(C)N(c2cccc(C(F)(F)F)c2)c2nn(C)c(=O)n2C1c1ccc(C#N)cc1` (centres unmarked) [Example 6, 5-(4-Cyanophenyl)-2,7-dimethyl-3-oxo-8-(3-trifluoromethylphenyl)-2,3,5,8-tetrahydro-[1,2,4]triazolo[4,3-a]pyrimidine-6-carboxylic acid methyl ester], the IC50 was below 20 nM.

In the case of `COC(=O)C1=C(C)N(c2cccc(C(F)(F)F)c2)c2nn(Cc3ccccc3)c(=O)n2C1c1ccc(C#N)cc1` (centres unmarked) [Example 4, 2-Benzyl-5-(4-cyanophenyl)-7-methyl-3-oxo-8-(3-trifluoromethyl-phenyl)-2,3,5,8-tetrahydro-[1,2,4]triazolo[4,3-a]pyrimidine-6-carboxylic acid methyl ester], the IC50 is 20 to 100 nM.

Turning to `CC1=C(C(=O)OCCN(C)C)C(c2ccc(C#N)cc2)n2c(n[nH]c2=O)N1c1cccc(C(F)(F)F)c1` (centres unmarked) [Example 10, 5-(4-Cyano-phenyl)-7-methyl-3-oxo-8-(3-trifluoromethyl-phenyl)-2,3,5,8-tetrahydro-[1,2,4]triazolo[4,3-a]pyrimidine-6-carboxylic acid 2-dimethylamino-ethyl ester], the IC50 is below 20 nM.

Take `CC1=C(C#N)C(c2ccc(C#N)cc2)n2c(n[nH]c2=O)N1c1cccc(C(F)(F)F)c1` (centres unmarked) [Example 14, 5-(4-Cyano-phenyl)-7-methyl-3-oxo-8-(3-trifluoromethyl-phenyl)-2,3,5,8-tetrahydro-[1,2,4]triazolo[4,3-a]pyrimidine-6-carbonitrile]: the IC50 was below 20 nM.

Regarding `CC1=C(C#N)C(c2ccc(C#N)cc2)n2c(nn(CCCS(=O)(=O)CCC[N+](C)(C)C)c2=O)N1c1cccc(C(F)(F)F)c1` (centres unmarked) [Example 39, (3-{3-[6-Cyano-5-(4-cyano-phenyl)-7-methyl-3-oxo-8-(3-trifluoromethyl-phenyl)-5,8-dihydro-[1,2,4]triazolo[4,3-a]pyrimidin-2-yl]-propane-1-sulfonyl}-propyl)-trimethylammonium toluene-4-sulfonate], the IC50 was below 20 nM.

Regarding `COC(=O)C1=C(C)N(c2cccc(C(F)(F)F)c2)c2nn(CC(=O)N(C)CCCN(C)C)c(=O)n2C1c1ccc(C#N)cc1` (centres unmarked) [Example 26, 5-(4-Cyano-phenyl)-2-{[(3-dimethylamino-propyl)-methyl-carbamoyl]-methyl}-7-methyl-3-oxo-8-(3-trifluoromethyl-phenyl)-2,3,5,8-tetrahydro-[1,2,4]triazolo[4,3-a]pyrimidine-6-carboxylic acid methyl ester], the IC50 was below 20 nM.

For `COC(=O)C1=C(C)N(c2cccc(C(F)(F)F)c2)c2n[nH]c(=O)n2C1c1ccc(C#N)cc1` (centres unmarked) [Example 1, 5-(4-Cyanophenyl)-7-methyl-3-oxo-8-(3-trifluoromethylphenyl)-2,3,5,8-tetrahydro-[1,2,4]triazolo[4,3-a]pyrimidine-6-carboxylic acid methyl ester], the IC50 is below 20 nM.

For orientation: IC50 means the concentration that gives 50% inhibition.
